Measurements: paper PMC9276671, “A first-in-human Phase I dose-escalation trial of the novel therapeutic peptide, ALM201, demonstrates a favourable safety profile in unselected patients with ovarian cancer and other advanced solid tumours” (British Journal of Cancer, 2022)
No end group written: not given here.

Assay: Plasma pharmacokinetics of ALM201 in Phase I patients (validated LC-MS/MS, Phoenix WinNonlin)
Settings: for Tmax: median, plasma LC-MS/MS; for Half-life: SC, day 1 cycle 1

## IRQQPRDPPTETLELEVSPDPAS [ALM201]
human, plasma, sc, 300 mg, Plasma concentration, geometric mean (CV%), 300 mg SC, day 1 cycle 1, 2 h after dosing, n = 3, LC-MS/MS
  level at 2 h: 2310 ng/mL
human, plasma, sc, 300 mg, Plasma concentration, geometric mean (CV%), 300 mg SC, day 1 cycle 1, 3 h after dosing, n = 3, LC-MS/MS
  level at 3 h: 2120 ng/mL
human, plasma, sc, 300 mg, Plasma concentration, geometric mean (CV%), 300 mg SC, day 1 cycle 1, 4 h after dosing, n = 3, LC-MS/MS
  level at 4 h: 1600 ng/mL
human, plasma, sc, 300 mg, Plasma concentration, geometric mean (CV%), 300 mg SC, day 1 cycle 1, 5 h after dosing, n = 3, LC-MS/MS
  level at 5 h: 1280 ng/mL
human, plasma, sc, 300 mg, Plasma concentration, geometric mean (CV%), 300 mg SC, day 1 cycle 1, 6 h after dosing, n = 3, LC-MS/MS
  level at 6 h: 901 ng/mL
human, plasma, sc, 300 mg, Plasma concentration, geometric mean (CV%), 300 mg SC, day 1 cycle 1, 7 h after dosing, n = 3, LC-MS/MS
  level at 7 h: 703 ng/mL
human, plasma, sc, 300 mg, Plasma concentration, geometric mean (CV%), 300 mg SC, day 1 cycle 1, 8 h after dosing, n = 3, LC-MS/MS
  level at 8 h: 420 ng/mL
human, plasma, sc, 300 mg, Plasma concentration, geometric mean (CV%), 300 mg SC, day 3 cycle 1, 0.5 h after dosing, n = 3, LC-MS/MS
  level at 0.5 h: 1970 ng/mL
human, plasma, sc, 300 mg, Plasma concentration, geometric mean (CV%), 300 mg SC, day 3 cycle 1, 1 h after dosing, n = 3, LC-MS/MS
  level at 1 h: 2590 ng/mL
human, plasma, sc, 300 mg, Plasma concentration, geometric mean (CV%), 300 mg SC, day 3 cycle 1, 1.5 h after dosing, n = 2 values (CV NC), LC-MS/MS
  level at 1.5 h: 1950 ng/mL
human, plasma, sc, 300 mg, Plasma concentration, geometric mean (CV%), 300 mg SC, day 3 cycle 1, 2 h after dosing, n = 2 values (CV NC), LC-MS/MS
  level at 2 h: 2450 ng/mL
human, plasma, sc, 300 mg, Plasma concentration, geometric mean (CV%), 300 mg SC, day 3 cycle 1, 4.5 h after dosing, n = 3, LC-MS/MS
  level at 4.5 h: 1740 ng/mL
human, plasma, sc, 300 mg, Plasma concentration, geometric mean (CV%), 300 mg SC, day 3 cycle 1, 7 h after dosing, n = 3, LC-MS/MS
  level at 7 h: 852 ng/mL
human, plasma, sc, 300 mg, Plasma concentration, geometric mean (CV%), 300 mg SC, day 18 cycle 1, 0.5 h after dosing, n = 3, LC-MS/MS
  level at 0.5 h: 2290 ng/mL
human, plasma, sc, 300 mg, Plasma concentration, geometric mean (CV%), 300 mg SC, day 18 cycle 1, 1 h after dosing, n = 3, LC-MS/MS
  level at 1 h: 2410 ng/mL
human, plasma, sc, 300 mg, Plasma concentration, geometric mean (CV%), 300 mg SC, day 18 cycle 1, 1.5 h after dosing, n = 3, LC-MS/MS
  level at 1.5 h: 2600 ng/mL
human, plasma, sc, 300 mg, Plasma concentration, geometric mean (CV%), 300 mg SC, day 18 cycle 1, 2 h after dosing, n = 3, LC-MS/MS
  level at 2 h: 2520 ng/mL
human, plasma, sc, 300 mg, Plasma concentration, geometric mean (CV%), 300 mg SC, day 18 cycle 1, 4.5 h after dosing, n = 3, LC-MS/MS
  level at 4.5 h: 1370 ng/mL
human, plasma, sc, 300 mg, Plasma concentration, geometric mean (CV%), 300 mg SC, day 18 cycle 1, 7 h after dosing, n = 3, LC-MS/MS
  level at 7 h: 767 ng/mL
human, plasma, sc, 300 mg, Plasma concentration, geometric mean (CV%), 300 mg SC, day 18 cycle 2, 0.5 h after dosing, n = 3, LC-MS/MS
  level at 0.5 h: 1990 ng/mL
human, plasma, sc, 300 mg, Plasma concentration, geometric mean (CV%), 300 mg SC, day 18 cycle 2, 1 h after dosing, n = 3, LC-MS/MS
  level at 1 h: 2280 ng/mL
human, plasma, sc, 300 mg, Plasma concentration, geometric mean (CV%), 300 mg SC, day 18 cycle 2, 1.5 h after dosing, n = 3, LC-MS/MS
  level at 1.5 h: 2380 ng/mL
human, plasma, sc, 300 mg, Plasma concentration, geometric mean (CV%), 300 mg SC, day 18 cycle 2, 2 h after dosing, n = 3, LC-MS/MS
  level at 2 h: 2540 ng/mL
human, plasma, sc, 300 mg, Plasma concentration, geometric mean (CV%), 300 mg SC, day 18 cycle 2, samples collected at 4.5 hours, n = 3, LC-MS/MS
  level at 4.5 h: 720 ng/mL
human, plasma, sc, 300 mg, Plasma concentration, geometric mean (CV%), 300 mg SC, day 18 cycle 2, samples collected at 7.0 hours, n = 3, LC-MS/MS
  level at 7 h: 485 ng/mL
human, plasma, sc, 300 mg, Plasma concentration, geometric mean (CV%), 300 mg SC, day 18 cycle 4, 0.5 h after dosing, n = 1, LC-MS/MS
  level at 0.5 h: 1670 ng/mL
human, plasma, sc, 300 mg, Plasma concentration, geometric mean (CV%), 300 mg SC, day 18 cycle 4, 1 h after dosing, n = 1, LC-MS/MS
  level at 1 h: 2140 ng/mL
human, plasma, sc, 300 mg, Plasma concentration, geometric mean (CV%), 300 mg SC, day 18 cycle 4, 1.5 h after dosing, n = 1, LC-MS/MS
  level at 1.5 h: 1990 ng/mL
human, plasma, sc, 300 mg, Plasma concentration, geometric mean (CV%), 300 mg SC, day 18 cycle 4, 2 h after dosing, n = 1, LC-MS/MS
  level at 2 h: 1990 ng/mL
human, plasma, sc, 300 mg, Plasma concentration, geometric mean (CV%), 300 mg SC, day 18 cycle 4, sample collected at 4.5 hours, n = 1, LC-MS/MS
  level at 4.5 h: 854 ng/mL
human, plasma, sc, 300 mg, Plasma concentration, geometric mean (CV%), 300 mg SC, day 18 cycle 4, sample collected at 7.0 hours, n = 1, LC-MS/MS
  level at 7 h: 387 ng/mL
human, plasma, sc, 300 mg, Plasma concentration, geometric mean (CV%), 300 mg SC, day 18 cycle 6, 0.5 h after dosing, n = 1, LC-MS/MS
  level at 0.5 h: 3150 ng/mL
human, plasma, sc, 300 mg, Plasma concentration, geometric mean (CV%), 300 mg SC, day 18 cycle 6, 1 h after dosing, n = 1, LC-MS/MS
  level at 1 h: 4430 ng/mL
human, plasma, sc, 300 mg, Plasma concentration, geometric mean (CV%), 300 mg SC, day 18 cycle 6, 1.5 h after dosing, n = 1, LC-MS/MS
  level at 1.5 h: 5240 ng/mL
human, plasma, sc, 300 mg, Plasma concentration, geometric mean (CV%), 300 mg SC, day 18 cycle 6, 2 h after dosing, n = 1, LC-MS/MS
  level at 2 h: 6830 ng/mL
human, plasma, sc, 300 mg, Plasma concentration, geometric mean (CV%), 300 mg SC, day 18 cycle 6, sample collected at 4.5 hours, n = 1, LC-MS/MS
  level at 4.5 h: 3600 ng/mL
human, plasma, sc, 300 mg, Plasma concentration, geometric mean (CV%), 300 mg SC, day 18 cycle 6, sample collected at 7.0 hours, n = 1, LC-MS/MS
  level at 7 h: 693 ng/mL
human, plasma, sc, 300 mg, 300 mg SC, day 1 cycle 1, n = 3
  Tmax: 2 h
human, plasma, sc, 300 mg, 300 mg SC, day 3 cycle 1, n = 3
  Tmax: 1.02 h
human, plasma, sc, 300 mg, 300 mg SC, day 18 cycle 1, n = 3
  Tmax: 1.5 h
human, plasma, sc, 300 mg, 300 mg SC, day 18 cycle 4, n = 1
  Tmax: 1.12 h
human, plasma, sc, 300 mg, 300 mg SC, day 18 cycle 6, n = 1
  Tmax: 2.02 h
Patient 02.002, 80 mg cohort
  Half-life: 1.80 h
Patient 02.003, 160 mg cohort
  Half-life: 1.50 h
Patient 03.005, 160 mg cohort
  Half-life: 0.90 h
